Test results as given in patent US5843968A, “Symmetrical bis-heteroarylmethoxy-phenylalkyl carboxylates as inhibitors of leukotriene biosynthesis” (Abbott Laboratories, priority 1997, dated 1998).
Where a name gives a salt, the structure may show the parent alone. Read-outs that look alike come from different tables or passages of the source.

Legend:
5-Lipoxygenase = assay: Inhibition of calcium ionophore-induced LTB4 formation in human polymorphonuclear leukocytes (PMNL), in vitro; format: cell-based; details: 15 min preincubation, calcium ionophore stimulation 10 min at 37° C., LTB4 by enzyme-linked immunoassay or HPLC, read-out: IC50, In Vitro Inhibitory Potencies Against 5-Lipoxygenase From Stimulated LTB4 Formation in Human Polymorphonuclear Leukocytes
Procedure: Inhibition of leukotriene biosynthesis was evaluated in vitro using an assay involving calcium ionophore-induced LTB4 expressed in human polymorphornuclear leukocytes (PMNL). Human PMNL isolated from heparinized (20 USP units/mL) venous blood (25 mL) obtained from healthy volunteers was layered over an equal volume of Ficoll-Hypaque Mono-Poly Resolving Medium (ICN Flow, Costa Mesa, Calif.) and centrifugated at 400×g for 40 minutes at 20° C. The PMNL was collected, erythrocytes lysed and washed 2× and suspended at 1.0×10^7 cells/mL in Earle's balanced salt solution with 17 mM Earle's HEPES. Aliquots of the cell suspension were preincubated with test compounds dissolved in DMSO (final concentration <2%) for 15 minutes and stimulated with calcium ionophore (final concentration 8.3, μM) for 10 minutes at 37° C. Incubations were stopped with the addition of two volumes of ice-cold methanol followed by centrifuging the cell suspensions at 4° C. for 10 minutes at ~450×g. The amount of LTB4 in the methanol extract was analyzed by enzyme-linked immunoassay or by HPLC analysis.

leukotriene biosynthesis = assay: Inhibition of leukotriene biosynthesis in vivo, Ionophore-Induced Rat Pleural Inflammation Model; details: 0.5 h, male rats, dosed in 0.2% methocel one hour prior to intrapleural A23187, lavage 30 min later, enzyme immunoassay
Procedure: Inhibition of leukotriene biosynthesis in vivo was evaluated using the Ionophore […]-Induced Rat Plueral Inflammation Model. […] Rats were dosed with experimental compounds in 0.2% methocel one hour prior to the intrapleural injection of the calcium ionophore, A23187. The rats where lightly anesthetized with Pentrane (Abbott Laboratories) and injected intrapleurally with 0.5 ml of 2% ethanol in injectable saline (Abbott Laboratories) containing 20 μg of A23187 (Cal BioChem-Novabiochem). Thirty minutes later the animals were euthanised and the pleural cavities lavaged with ice cold saline (Abbott Laboratories). The lavage fluid was then added to ice cold methanol (final methanol concentration 30%) to lyse cells and precipitate protein. Eicosanoids were determined by enzyme immunoassay by standard methods.

SMILES | IC50 (5-Lipoxygenase) [nM] | inhibition in vivo at 3 mg/kg (leukotriene biosynthesis) [%] | IC50 (5-Lipoxygenase; sodium salt) [nM]
CC(CCC(=O)O)(c1ccc(OCc2ccc3ccccc3n2)cc1)c1ccc(OCc2ccc3ccccc3n2)cc1 [Example 1, 4,4-bis(4-(2-quinolylmethoxy)phenyl)pentanoic acid] | 40 | – | –
CC(CCC=NOCC(=O)O)(c1ccc(OCc2ccc3ccccc3n2)cc1)c1ccc(OCc2ccc3ccccc3n2)cc1 [Example 7] | 40 | – | –
CC(=NOCCCC(C)(c1ccc(OCc2ccc3ccccc3n2)cc1)c1ccc(OCc2ccc3ccccc3n2)cc1)C(=O)O [Example 6, [4,4-bis(4-(2-quinolylmethoxy)phenyl)pent-1-yl]-2-iminoxypropionic acid] | 35 | – | –
O=C(O)CON=CC(c1ccc(OCc2ccc3ccccc3n2)cc1)c1ccc(OCc2ccc3ccccc3n2)cc1 [Example 31, 2,2-bis(4-(2-quinolylmethoxy)phenyl)eth-1-yloximinoacetic acid] | 35 | – | –
CC(CCC(=O)O)(c1ccc(OCc2nc3ccccc3s2)cc1)c1ccc(OCc2nc3ccccc3s2)cc1 [Example 8, 4,4-bis(4-(2-benzothiazoylmethoxy)phenyl)pentanoic acid] | 46 | – | –
CC(C)(C=NOCC(=O)O)C(c1ccc(OCc2ccc3ccccc3n2)cc1)c1ccc(OCc2ccc3ccccc3n2)cc1 [Example 27, sodium salt] | 28 | 42 | –
CC(CCCON=CC(=O)O)(c1ccc(OCc2ccc3ccccc3n2)cc1)c1ccc(OCc2ccc3ccccc3n2)cc1 [Example 5, [4,4-bis(4-(2-quinolylmethoxy)phenyl)pent-1-yl]iminoxyacetic acid] | 30 | – | –
O=C(O)CC(c1ccc(OCc2ccc3ccccc3n2)cc1)c1ccc(OCc2ccc3ccccc3n2)cc1 [Example 34, 3,3-bis(4-(2-quinolylmethoxy)phenyl)propionic acid sodium salt] | 70 | 30 | –
CC(C(=O)O)(c1ccc(OCc2ccc3ccccc3n2)cc1)c1ccc(OCc2ccc3ccccc3n2)cc1 [Example 12, 2,2-bis(4-(2-quinolylmethoxy)phenyl)propionic acid] | 32 | – | –
CC(=NOCCC(C)(c1ccc(OCc2ccc3ccccc3n2)cc1)c1ccc(OCc2ccc3ccccc3n2)cc1)C(=O)O [Example 36, [3,3-bis-(2-quinolylmethoxyphenyl)but-1-yl]-2-iminoxypropionic acid] | 25 | – | –
CC(CCC(=O)O)(c1ccc(OCc2ccc3ccccc3n2)c(Cl)c1)c1ccc(OCc2ccc3ccccc3n2)c(Cl)c1 [Example 20, 4,4-bis(3-chloro-4-(2-quinolylmethoxy)phenyl)pentanoic acid] | 26 | – | –
CC(=NOCCC#CC(O)(c1ccc(OCc2ccc3ccccc3n2)cc1)c1ccc(OCc2ccc3ccccc3n2)cc1)C(=O)O [Example 38, [5,5-bis(4-(2-quinolylmethoxy)phenyl)-5-hydroxy-3-pentyn-1-yl]-2-iminoxypropionic acid sodium salt] | 60 | 40 | –
CC(C)(CON=CC(=O)O)C(c1ccc(OCc2ccc3ccccc3n2)cc1)c1ccc(OCc2ccc3ccccc3n2)cc1 [Example 28, 2,2-dimethyl-3,3-bis(4-(2-quinolylmethoxy)phenyl)-1-propyliminoxyacetic acid] | 34 | – | –
CC(C)(C(=O)O)C(c1ccc(OCc2ccc3ccccc3n2)cc1)c1ccc(OCc2ccc3ccccc3n2)cc1 [Example 26, 2,2-dimethyl-3,3-bis(4-(2-quinolylmethoxy)phenyl)propionic acid sodium salt] | 80 | 50 | –
CCC(C(=O)O)(c1ccc(OCc2ccc3ccccc3n2)cc1)c1ccc(OCc2ccc3ccccc3n2)cc1 [Example 24, 2,2-bis(4-(2-quinolylmethoxy)phenyl)butyric acid] | – | 38 | –
CC(CCC(=O)O)(c1ccc(OCc2ccc3ccccc3n2)cc1)c1ccc(OCc2ccc3ccccc3n2)cc1 [Example 2, 4,4-bis(4-(2-quinolylmethoxy)phenyl)pentanoic acid sodium salt] | – | 53 | 69
CC(O)(c1ccc(OCc2ccc3ccccc3n2)cc1)c1ccc(OCc2ccc3ccccc3n2)cc1 [Example 25, 1,1-bis(4-(2-quinolylmethoxy)phenyl)ethanol] | 50 | – | –
CC(CCC(=O)O)(c1ccc(OCc2nc3ccccc3s2)cc1)c1ccc(OCc2nc3ccccc3s2)cc1 [Example 9, 4,4bis(4-(2-benzothiazoylmethoxy)phenyl)pentanoic acid sodium salt] | – | – | 50
O=C(O)C(c1ccc(OCc2ccc3cc(F)ccc3n2)cc1)c1ccc(OCc2ccc3cc(F)ccc3n2)cc1 [Example 30, 2,2-bis(4-(6-fluoro-2-quinolymethoxy)phenyl)acetic acid] | 50 | – | –
CC(CCCC(=O)O)(c1ccc(OCc2ccc3ccccc3n2)cc1)c1ccc(OCc2ccc3ccccc3n2)cc1 [Example 14, 5,5-bis(4-(2-quinolylmethoxy)phenyl)hexanoic acid] | 43 | 32 | –
CC(CCC(=O)O)(c1ccc(OCc2ccc3cc(F)ccc3n2)cc1)c1ccc(OCc2ccc3cc(F)ccc3n2)cc1 [Example 11, 4,4-bis(4-(6-fluoro-2-quinolylmethoxy)phenyl)pentanoic acid sodium salt] | 40 | 42 | –
